Patent US20040143025A1, “Carbon monoxide generating compunds for treatment of vascular, inflammatory and immune disorders” (priority 2002, published 2004)

How the values were obtained:
rat liver [1] = system: rat liver; design: species or system Sprague Dawley (SD) rats; conditions: 2 h reperfusion, inhibitor given together with CO 300 ppm; for bile production / portal vein resistance: compared with CO alone
Source text: Animals. Male Sprague Dawley (SD) rats weighing between 300-350 g (Harlan Sprague Dawley, Indianapolis, Ind.) were used. Animals were fed standard rodent chow and water and libitum and cared according to guidelines approved by the American Association of Laboratory Animal Care.
Isolated perfusion liver apparatus. An isolated perfusion liver apparatus was used, as described in Amersi et al., supra, and Maulik et al., Circulation 94:398-406 (1996). In brief, syngeneic rat blood, obtained for each experiment from four donor animals, was diluted to a hematocrit of 15% with Krebs Ringer Bicarbonate Buffer (mM: NaCl 118, KH2POF 1, MgSO4 0.9, CaCl2 2.5, dextrose 11.1, and NaHCO2 25), and maintained at pH of 7.4. The perfusate was pumped from a heated reservoir that warmed the perfusate to 37° C. through silastic tubing oxygenator connected to a flow meter that measured portal vein blood flow (Cole Palmer Instruments, Chicago, Ill.). Portal pressure was kept constant via a pressure monometer connected to a T fitting in the portal vein canula. […] During the experiment, pH, temperature and oxygenation were kept constant.
Ex vivo cold ischemia model. SD rats underwent isoflourane anesthesia and systemic heparinization. […] The livers were then stored for 24 h at 4° C. in UW solution, followed by ex-vivo reperfusion for 1-2 h on an isolated perfusion liver apparatus. Portal vein blood flow, pressure, and bile production were recorded every 30 min. Blood samples were collected at 30 min intervals and serum glutamic oxaloacetic transaminase (sGOT) levels were measured using an autoanalyzer from ANTECH Diagnostics (Irvine, Calif.). At the conclusion of experiment, a portion of the liver was snap frozen for mRNA extraction/Western blot analyses; the remaining samples were fixed in formalin for H&E staining.
The role of CO—HO-1 pathway in hepatic I/R injury was studied in five major treatment groups (n=4.8 rats/group). In Group 1, the extent of I/R injury was contrasted between livers perfused ex-vivo with blood saturated with CO (300 parts per million [ppm]; 0.03% balanced air) vs. air alone (21% O2). As NO may enhance HO-1 expression (Brouard et al., supra), we then investigated a link between the two gaseous molecules in Group 2 livers, which were perfused with CO supplemented with 25 mM NG-nitro-L-arginine methyl ester hydrochloride (L-NAME; Sigma Chemicals, St. Louis, Mo.), an inducible NO inhibitor. […] To analyze as to whether exogenous CO can substitute for HO-1 in preventing I/R insult, Group 4 rats were treated 24 h prior to liver procurement with ZnPP)(1.5 mg/kg/i.p; Porphyrin Products, Logan Utah), an HO-1 inhibitor, followed by ex vivo perfusion with CO. […] Brouard et al., supra. Therefore, Group 5 rats were pre-treated 60 min before harvest with p38 MAPK inhibitor, SB203580, a pyridinyl imidazol (25 mg/kg orally; Sigma). In addition, prior to reperfursion with CO, SB203580 (20 μM) was added to the perfusate.

rat liver [2] = assay: Histologic severity of I/R injury, Banff criteria; design: species or system Sprague Dawley (SD) rats; conditions: CO plus inhibitor, 2 h perfusion; scale 1-4
Source text: Histology. Liver specimens were fixed in a 10% buffered formalin solution and embedded in paraffin. Sections were made at 4 μm and stained with H&E. The histologic severity of I/R injury was graded using International Banff Criteria (Int'l Banff Schema Conference Worksheet, The Third Int'l Banff Conference on Allograft Pathology, June 21-25 (1995)). Using these criteria, lobular disarray and ballooning changes are graded from 1-4, where no change is given a score of 1 and severe disarray or ballooning changes are given a score of 4.

HO-1 [3] = assay: ELISA for HO-1 protein expression in liver; design: species or system rat; conditions: ZnPP = pretreatment then CO perfusion; CO = CO only
Procedure: ELISA for HO-1 protein expression. Livers were homogenized on ice in a Tris-HCl lysis buffer (pH 7.4) containing 0.5% Triton X-100 and protease inhibitors. Flat-bottom microtiter 96-well plates (Nunc) were coated with 7 μg/ml anti-HO-1 mAb (OSA-111, Stressgen, Canada) in PBS for 18 h at room temperature. Unbound Ab was removed by washing (wash buffer: 0.05% Tween 20 in 50 mM phosphate buffer, pH 7.5) and remaining binding sites were blocked by incubation with a 5% BSA/PBS solution (1 h). Recombinant HO-1 (SPP-730) and tissue homogenate were diluted in assay diluent (0.5% BSA/0.05% Tween 20/PBS) and incubated in anti-HO-1 mAb coated wells for 1 h at room temperature. Subsequently, plates were washed three times with wash buffer and incubated with rabbit anti-HO-1 polyclonal antibody (SPA-895, Stressgen; diluted 1:1000 in assay diluent) for 30 min at room temperature. Bound rabbit IgG was detected with a donkey anti-rabbit (gG-HRP conjugate (711-035-152, Jackson Research Laboratories; diluted 1:8000 in assay diluent). Unbound secondary Ab was removed by washing and bound HRP was detected using 1 mg/ml OPD in substrate buffer (0.1% H2O2, 0.1 M citric acid, 0.2 M Na2HPO4, pH 5.0). The color reaction was stopped with 1 M HCl and the optical density at 490 nm was measured.

HO-1 [4] = assay: HO-1 enzymatic activity in liver homogenates; assay type: biochemical, rat; conditions: liver after perfusion; ZnPP = 1.5 mg/kg i.p. 24 h before harvest then CO perfusion; CO = CO only
Procedure: HO-1 Enzymatic Activity. Livers were homogenized on ice in a Tris-HCl lysis buffer (pH 7.4) containing 0.5% Triton X-100 and protease inhibitors. Samples were frozen in small aliquots until use. Homogenates (100 μl) were mixed with 0.8 mM NADPH, 0.8 mM glucose-6-phosphate 1.0 unit G-60P dehydrogenase, 1 mM MgCl2 and […] purified rat liver biliverdin reductase at 4° C. The reaction was initiated by the addition of hemin (final concentration 0.25 mM). The reaction mixture was incubated at 37° C. in the dark for 15 min. At the end of incubation period, any insoluble material was removed by centrifugation and supernatants were analyzed for bilirubin concentration. An extinction coefficient of 40 mM^−1 cm^−1 at A 460-530 was used to calculate the amount of bilirubin formed. Controls included naive samples in the absence of the NADPH generating system and all the ingredients of the reaction mixture in the absence of graft homogenates. Biliverdin reductase was purified from rat liver, as described in Browne and Ultrich, Mol. Pharmacol. 32:497-504 (1987).

IFN-γ = assay: Quantitative RT-PCR of cytokine mRNA in collagen-arthritis rats, IFN-γ; conditions: rat, in vivo
Procedure: (§1) Iodoform and bromoform were compared with methylene chloride as alternative carbon monoxide generating compounds, using the rat collagen arthritis model described in Example 6 above. Briefly, arthritis was induced in a Lovain strain of rats by immunizing the animals with Collagen Type II in Incomplete Freund's Adjuvant. Digitized radiographs were obtained at the completion of the study on day 28. Pharmacokinetics were also determined and the synovial tissue from the inflamed joints of the treated animals was harvested on Day 16 or Day 28 post-immunization. Disease systems were generally evident by Day 10.
(§2) Carboxyhemoglobin levels peaked within a few hours of administration but normalized within 24 hours without cumulative pharmacokinetic consequences. Messenger RNA (mRNA) from the treated animals was purified and specific mRNA levels for cytokines TNF, IL-6, and IFN-γ were quantitated by Quantitative RT-PCR.

[5] = system: Louvain rats immunized with collagen type II; assay: Rat collagen-arthritis model; assay type: in vivo; design: arthritic score / Arthritis Score / X-Ray Score: scale not given here; conditions: for structural damage by blinded radiographic scores: day 28; for efficacy in comparison with methylene chloride (RB2000): rat collagen arthritis model, arthritic score; for arthritic scores in comparison to methylene chloride treated rats: rat, in vivo
Procedure: To assess the therapeutic potential of methylene chloride as a carbon-monoxide generating compound in this disease model, female Louvain rats weighing between 120 and 150 g were injected intradermally with 0.5 mg native chicken collagen type II solubilized in 0.1M acetic acid and emulsified in incomplete Freund's adjuvant. At the onset of disease (around day 10) animals were divided into three groups. One group was treated daily with vehicle, the second and third groups with 100 mg/kg/day and 500 mg/kg/day methylene chloride (p.o.). Severity of disease was evaluated daily using a quantification method based on standardized levels of swelling and periarticular erythema. Animals were sacrificed on day 28. […] Compared to control animals these differences were statistically significant (p<0.02).
as §1

[6] = Blood carboxyhemoglobin after alkyl halide administration; assay type: in vivo; conditions: 100 mg/kg
Procedure: The ability of the trihalomethanes iodoform and bromoform to act as carbon monoxide generating compounds was assayed in comparison with methylene chloride.

TNF = assay: Quantitative RT-PCR of cytokine mRNA in collagen-arthritis rats, TNF; assay type: in vivo, rat; conditions: Day 28
Procedure: as §1, §2

IL-6 = assay: Quantitative RT-PCR of cytokine mRNA in collagen-arthritis rats, IL-6; conditions: rat, in vivo
Procedure: as §1, §2

Lewis rats = assay: Experimental autoimmune encephalomyelitis (EAE) model of multiple sclerosis; assay type: in vivo, rat; conditions: daily oral administration from day 8 post-inoculation; scale 0 to 3
Procedure: Multiple sclerosis is characterized by an autoimmune and inflammatory response directed against myelin sheath and oligodendrocytes, resulting in demyelination in the central nervous system. A well-established animal model of multiple sclerosis, experimental autoimmune encephalomyelitis (EAE), was used to examine the effect of the subject alkyl halides on this autoimmune and inflammatory condition of the central nervous system. Lewis rats were given intradermal footpad injections of 50 μg guinea pig myelin basic protein (MBP) and complete Freund's adjuvant (CFA) to induce experimental allergic encephalomyelitis (EAE). Daily oral administration of vehicle, methylene chloride or iodoform was started on day 8 post-inoculation and continued to the end of the study. Animals were monitored and scored on a 0 (normal) to 3 (complete hindlimb paralysis) scale. Daily mean±SD clinical scores are shown.

| SMILES | bile production (rat liver [1]) | portal vein resistance (rat liver [1]) | sGOT release (rat liver [1]) | mRNA levels for IFN-γ compared to methylene chloride treated rats (IFN-γ) | Arthritis Score ([5]; Day 28, dose 250 mg/kg) | X-Ray Score ([5]; Day 28, dose 250 mg/kg) | structural damage by blinded radiographic scores [5] | efficacy in comparison with methylene chloride (RB2000) [5] | arthritic scores in comparison to methylene chloride treated rats [5] | COHb level in comparison with the same amount of methylene chloride [6] | mRNA levels for TNF compared to methylene chloride treated rats (TNF) | mRNA levels for IL-6 compared to methylene chloride treated rats (IL-6) | also measured |
| --- | --- | --- | --- | --- | --- | --- | --- | --- | --- | --- | --- | --- | --- |
| COC(=O)[C@@H](N)CCCN=C(N)N[N+](=O)[O-].Cl [L-NAME, NG-nitro-L-arginine methyl ester hydrochloride] | increase in bile production | decrease in portal vein resistance | 191±16 IU/L | – | – | – | – | – | – | – | – | – | – |
| O=C1C(Nc2ccccc2)=CC(=O)c2ncccc21 [LY-83583, 6-anilino-5,8-quinalinedone] | comparable | slightly increased | 186±21 IU/L | – | – | – | – | – | – | – | – | – | – |
| C[S+]([O-])c1ccc(-c2nc(-c3ccncc3)c(-c3ccc(F)cc3)[nH]2)cc1 (centres unmarked) [SB203580] | significantly less bile | significant increase in portal vein resistance | 352±21 IU/L | – | – | – | – | – | – | – | – | – | – |
| C=CC1=C(C)c2cc3[n-]c(cc4[n-]c(cc5nc(cc1n2)C(C)=C5C=C)c(C)c4CCC(=O)O)c(CCC(=O)O)c3C.[Zn+2] [ZnPP] | increased bile production | decreased portal vein resistance | 202±11 IU/L | – | – | – | – | – | – | – | – | – | Banff score of I/R injury (rat liver [2]): 1.5±0.0; HO-1 protein expression in liver samples (ELISA) (HO-1 [3]): 0.85±0.62 ng of HO-1/mg lysate; HO-1 enzyme activity (HO-1 [4]): 0.95±0.06 nmol of bilirubin/mg/protein/min |
| BrC(Br)Br [bromoform] | – | – | – | substantially lower | 5.5 ± 0.86 | 2.75 ± 0.81 | significantly inhibited structural damage | superior efficacy | significantly lower | higher COHb level | higher | substantially lower | – |
| IC(I)I [iodoform] | – | – | – | substantially lower | 1.85 ± 0.91 | 0.85 ± 0.45 | significantly inhibited structural damage | superior efficacy | significantly lower | higher COHb level | higher | substantially lower | clinical score / clinical signs (Lewis rats): did not display any clinical signs; Arthritis Score ([5]; Day 28, dose 100 mg/kg): 3.62 ± 0.99; X-Ray Score ([5]; Day 28, dose 100 mg/kg): 1.50 ± 0.80; Arthritis Score ([5]; Day 28, dose 175 mg/kg): 3.16 ± 0.99; X-Ray Score ([5]; Day 28, dose 175 mg/kg): 1.90 ± 0.64 |
